Read-outs that look alike come from different tables or passages of the source.
Experiments:
NFKB2 = assay: NFkB2 gene induction; type: cell-based, human; conditions: normal donor CD4 T cells, 24h, read-out: NFkB2 gene induction EC50
Experimental: 5×10^5 normal donor CD4 T cells were treated for 24h with serial dilutions of compounds starting at 1.0 μM at 6 fold, 7 places. Total RNA was isolated using the RNEasy Mini kit (Qiagen) per the manufacturer's instructions. The following TaqMan primer probe sets were sourced from Applied Biosystems: Hs00174517_m1 (NFKB2) and Hs02800695 (HPRT1). TaqMan-based real-time PCR (Fast Virus 1-Step Master Mix, Applied Biosystems) was used to amplify host genes of interest. Gene expression was normalized to HPRT1 and comparative threshold cycle (CT) method (ΔΔCT) was used for relative fold change of gene expression as compared to untreated cells. The data was analyzed by QuantStudio3 Real-Time PCR System.

[1] = system: cell-associated HIV RNA (HIV gag RNA) in CD4+ T cells; conditions: background statement, primary cells / resting CD4+ T cells; cited from earlier work
p100/p52 [2] = assay: p100/p52 Western blot (WB) assay; type: cell-based, human; conditions: PBMC cells from healthy donors, 24 hrs, read-out: p100/p52 Western Blot (WB) EC50
Experimental: Cell cultures were set up to evaluate several SMACm compounds. Frozen PBMC cells from healthy donors were thawed and plated in 2 ml deepwell plates at 2×10^6 cells/ml. Serial dilutions of each compound was carried out as a 7 fold 1:6 dilution with the starting final dose of 1000 nM. Cells were then combined with compound and place at 37° for 24 hrs. The following day cells were pelleted and placed at −80 until lysis.
In preparation for cell lysis, the frozen cell pellets and an aliquot of NP40 Cell Lysis Buffer (Invitrogen, Part #FNN0021), as well as an aliquot of 10× Protease Inhibitor Cocktail (Sigma, Part #P-2714) are thawed on ice. Once thawed, the complete lysis buffer is prepared by adding 10% final volume PI cocktail to the NP40 buffer and then adding in sufficient volume of 0.1 M PMSF (Sigma, Part #93482) and 1 M DTT (Sigma, Part #43816) to create a final concentration of 1 mM each in the complete lysis buffer. Cell lysis is then carried out by resuspending each cell pellet in 30 μL per 10^6 cells then incubating on ice for 30 minutes with vigorous vortexing every 10 minutes. The lysed cells are then centrifuged at 13K RPM for 10 minutes at 4° C. in a refrigerated microcentrifuge. The supernatants (lysates) are then transferred into new microcentrifuge tubes and either stored at −80° or utilized immediately for protein concentration and Western blot analysis.
Protein concentration for each lysate is determined using a detergent compatible Bradford assay (Pierce, Part #23246) following the manufacturer's microplate instructions.
Capillary Western analysis were performed using the ProteinSimple Jess System. A total of 1 ug of cell lysate was prepared according to the provided protocol supplied by ProteinSimple. The primary antibody for p100/p52 (Cell, Signaling #3017) is diluted 1:10 for use in the Jess system. The 12-230 kDa Jess Seperation Module capillary cartridges Separation Module (SM-W004) is used in conjunction with the Anti-Rabbit Secondary NIR conjugate (043-819). The Separation module includes prefilled plates that the samples, primary and secondary antibodies, as well as protein normalization reagent and diluents are loaded onto to perform separation and detection. Once the assay has run, the data is then analyzed utilizing the Compass software provided by ProteinSimple.
Alternatively to capillary electrophoresis, traditional immunoblot assays were carried out, 10 μg of cell lysate was loaded per well into 4-20% Tris-Glycine SDS-PAGE gels. Protein from the SDS-PAGE gels were transferred to Turbo Midi PVDF Transfer Packs (BioRad) using the “Mixed MW” protocol for one Midi Format Gel (constant 2.5 A up to 25V, for 7 minutes) of the Trans-Blot Turbo Transfer System (Bio-Rad) with premade Trans-Blot per the manufacturer's instructions. After transfer, PVDF membranes were blocked in 5% bovine serum albumin (BSA) in 1×TBS (BioRad) with 0.1% Tween-20 for 1 hour at room temperature with gentle rocking. Primary antibodies were added and incubated overnight at 4° C. (anti-p100/p52, Cell Signaling Technology #3017, 1:1000; anti-Actin-HRP conjugate, Abcam #49900, 1:30,000). Following primary staining, the membrane washed three times with 1× Tris Buffered Saline (TBS)+0.1% TWEEN® 20 for 10 minutes each wash. After washing, the membrane was incubated in 5% BSA in 1×TBS+0.1% TWEEN® 20 with the appropriate secondary antibody for 2 hours at room temperature. Following secondary stain the membrane was washed twice for 10 minutes with 1×TBS+0.1% TWEEN® 20 followed by a 10-minute wash with 1×TBS. The membrane was then patted dry with filter paper and an image was captured of the undeveloped membrane on the ChemiDoc MP Imaging System using Image Lab software (BioRad). Sufficient ECL reagent (GE Healthcare) was used to cover the membrane and a series of images were taken starting with 0.001 second and doubling to tripling the exposure time until the luminescence from the developed membrane saturated the image. […]

p100/p52 [3] = conditions: background statement, primary cells; cited from earlier work
[4] = system: Jurkat HIV-luciferase clones; conditions: background statement; cited from earlier work

Structure (SMILES) | EC50 (NFKB2) | HIV caRNA induction [1] | EC50 (p100/p52 [2]) | EC50 (NFKB2; Homo sapiens) | EC50 (p100/p52 [2]; Homo sapiens) | p100-p52 conversion (p100/p52 [3]) | potency in cell line assays / Jurkat (HIV latency reversal) [4]
CN[C@H](C)C(=O)N[C@@H](C(=O)N1CCC[C@@H]1C(=O)N[C@@H]1c2ccccc2C[C@@H]1OCC#CC#CCO[C@@H]1Cc2ccccc2[C@H]1NC(=O)[C@H]1CCCN1C(=O)[C@H](NC(=O)[C@@H](C)NC)C1CCCCC1)C1CCCCC1 [AZD5582, reference compound] | 28 nM | increase in cell-associated HIV RNA expression | 63 nM | – | – | – | –
CC[C@H](NC(=O)[C@H](C)NC)C(=O)N1C[C@@H](O)C[C@H]1Cc1c(-c2[nH]c3cc(F)ccc3c2C[C@@H]2C[C@H](O)CN2C(=O)[C@H](CC)NC(=O)[C@H](C)NC)[nH]c2cc(F)ccc12 [Birinapant, reference compound] | – | – | – | > 1000 nM | 1000 nM | – | –
CN[C@H](C)C(=O)N[C@@H]1CCS[C@@H]2CC(C)(C)C(C(=O)N[C@@H]3CCCc4ccccc43)N2C1=O (stereo partly shown) [SBI-0637142] | 18000 nM | did not exhibit activity | 100 to 1000 nM | – | – | did not exhibit activity | potent

Source: patent US11492361B2, “Compounds useful in HIV therapy” (GlaxoSmithKline Intellectual Property Development Limited, priority 2018, dated 2022)
